One experiment addresses T1, Squalene synthase (Homo sapiens, UniProt P37268).
T1 sequence (P37268 whole entry): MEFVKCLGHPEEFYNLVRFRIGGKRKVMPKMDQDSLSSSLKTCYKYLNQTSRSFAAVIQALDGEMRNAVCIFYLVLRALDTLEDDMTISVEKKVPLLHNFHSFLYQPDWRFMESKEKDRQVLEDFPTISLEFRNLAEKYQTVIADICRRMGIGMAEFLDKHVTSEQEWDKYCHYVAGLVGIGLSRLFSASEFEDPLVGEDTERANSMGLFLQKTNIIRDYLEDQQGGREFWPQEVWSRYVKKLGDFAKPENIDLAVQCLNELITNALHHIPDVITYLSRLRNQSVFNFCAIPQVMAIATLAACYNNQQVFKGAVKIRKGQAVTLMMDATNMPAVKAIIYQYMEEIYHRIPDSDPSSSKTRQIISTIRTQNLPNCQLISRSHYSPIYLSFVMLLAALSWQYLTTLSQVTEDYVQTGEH
Put plainly: Inhibitory activity against HepG2 Squalene Synthase (SQS).

A short description of experiment [1]: Inhibition of cholesterol synthesis by compound after oral administration at of 10-100 mg/kg/day in marmoset. The experiment is classed as functional.
The subject of experiment [2] is Mus musculus. The experiment in a line: Tested for inhibition of cholesterol synthesis by compound after oral administration at 10 mg/kg in mice. The experiment is classed as functional.
The test system of experiment [3] is Mus musculus. The experiment in a line: Inhibition of cholesterol synthesis from [14C]acetate expressed as percent reduction in radioactivity in mice after oral administration of 3 mg/kg. The experiment is classed as functional.

The record followed here is ChEMBL document CHEMBL1151488, “Synthesis and biological activity of J-104,118, a novel, potent inhibitor of squalene synthase” (Bioorg Med Chem Lett, 1995).

`C[C@H](NC(=O)C[C@@H](CC(=O)O)C(=O)O)[C@@H](Cc1ccc(Cl)cc1)c1ccc(-c2ccccc2)cc1` yielded an IC50 against Squalene synthase of 3.2 nM.

At Squalene synthase, `C[C@H](NC(=O)CC(CC(=O)O)C(=O)O)[C@@H](Cc1ccc(Cl)c(Cl)c1)c1ccc(-c2ccccc2)c(F)c1` (single isomer, unassigned) came in with an IC50 of 0.73 nM.

Turning to `C[C@H](NC(=O)CC(CC(=O)O)C(=O)O)[C@@H](Cc1ccc(Cl)c(Cl)c1)c1ccc(-c2ccccc2)c(F)c1` (some centres not stated), the IC50 against Squalene synthase is greater than 300 nM.

In experiment [1], `C=C(CCC12OC(C(=O)O)C(O)(C(=O)O)C(C(=O)O)(O1)[C@H](OC(=O)/C=C/[C@@H](C)C[C@@H](C)CC)[C@H]2O)[C@@H](OC(C)=O)[C@H](C)Cc1ccccc1` (some centres not stated) [ZARAGOZIC ACID A] yielded a Reduction of 75%. The inhibition in vivo at 10 mg/kg in the experiment on Mus musculus [2] turned out to be 38%.

As for `C[C@@H](NC(=O)C[C@H](CC(=O)O)C(=O)O)[C@@H](Cc1ccc(Cl)c(Cl)c1)c1ccc(-c2ccccc2)c(F)c1`, the IC50 against Squalene synthase was 19 nM.

Regarding `CC(NC(=O)CC(CC(=O)O)C(=O)O)C(Cc1ccc(Cl)cc1)c1ccc(Cl)cc1` (configuration not stated), the midpoint of inhibition against Squalene synthase, the IC50, lay at 660 nM.

As to `C[C@@H](NC(=O)C[C@H](CC(=O)O)C(=O)O)[C@H](Cc1ccc(Cl)c(Cl)c1)c1ccc(-c2ccccc2)c(F)c1`, the IC50 at Squalene synthase turned out to be 16 nM.

In turn, `C[C@H](NC(=O)C[C@@H](CC(=O)O)C(=O)O)[C@@H](Cc1ccc(Cl)c(Cl)c1)c1ccc(-c2ccccc2)cc1` yielded a half-maximal inhibitory concentration (IC50) against Squalene synthase of 1.2 nM.

Consider `C[C@@H](NC(=O)CC(CC(=O)O)C(=O)O)[C@H](Cc1ccc(Cl)c(Cl)c1)c1ccc(-c2ccccc2)c(F)c1` (some centres not stated), for which the 50% inhibitory concentration (IC50) against Squalene synthase is greater than 300 nM.

Consider `C[C@H](NC(=O)C[C@@H](CC(=O)O)C(=O)O)[C@@H](Cc1ccc(Cl)c(Cl)c1)c1ccc(-c2ccccc2)c(F)c1`, for which the Reduction with Mus musculus [3] is given as 84%. On Squalene synthase, the IC50 worked out at 0.52 nM.

As usually defined, the IC50 is the concentration that gives 50% inhibition. By inhibition in vivo is commonly meant the percentage by which the read-out fell short of the control. Lower therefore signals a response near the control.
